In a melting point compilation (Tetko et al.; mined from patent text by program, amines drawn as free bases though some values may be those of a salt) one finds melting point data, which are given here for 88 molecules.

The structures appear in SMILES notation.

What is called melting point is the temperature, or range, at which the solid turns liquid. The molecule `COc1ccc(-c2ncn(-c3cc(OC)c(OC)c(OC)c3)c2-c2cc(OC)c(OC)c(OC)c2)cc1OC` registered a melting point of 160 to 161 °C.
With `CN(C)C(=O)CCCCC(=O)O` the figure was 80 °C; with `CCCC(=O)c1cnc2c(C(=O)O)cccc2c1Nc1ccccc1C`, 179 to 180 °C; with `C=C(C)C(=O)CC/C(C)=C/CC/C(C)=C/C(N)=O`, 42 to 44 °C.
`O=C(NCCCCN1CCC(Oc2cccc3ccccc23)CC1)c1ccc(-c2ccc(C(F)(F)F)cc2)cc1` had a melting point of 166 °C.
`COC(=O)C1=C(C)NC(C)=C(C(=O)OCC2COC3(CCCC3)O2)C1c1cccc([N+](=O)[O-])c1` (stereo not drawn) registered a melting point of 58 to 67 °C.
Then `COc1c(NC(=O)c2ccc(C)c(-n3cc(C(=O)Cl)nn3)c2)cc(C(C)(C)C)cc1NS(C)(=O)=O`, with 205 to 207 °C; and `O=C(NC(=O)c1c(F)cccc1F)Nc1cc(C(F)(F)F)ccn1`, with 167 to 169 °C; and `NCc1ccccc1CN`, with above 250 °C.
Take `CCOC1CC2(C)C(CCC3C4CC(O)C(Br)C4(C)CC(N(C)C)C32)CC1O` (stereo not drawn): the melting point was in the range of 173 to 174 °C.
With `Clc1ccc(CNc2cncnc2)cc1`, the melting point was 121 °C.
Then `CCNC(=O)c1c(F)cccc1S(=O)C(C)(C)C` (stereo not drawn), with 114 to 116 °C; and `O=C(CCc1nc2ccccc2s1)Nc1cc(N2CC(c3ccccc3)OC2=O)ccn1` (stereo not drawn), with 229 to 230 °C; and `CC(C)(CCCCCCCCCCOCc1ccccc1)C(=O)O`, with 53 to 55 °C.
Take `Cc1cc(O)c(S(=O)(=O)CC2CCCCC2)c(=O)o1`: the melting point was 104 to 106 °C.
Regarding `CC(C)COC(=O)N[C@@H](CC(C)C)C(=O)N[C@@H](C(C)C)[C@@H](O)c1c(-c2ccccc2)c1=O`, the melting point fell in the range of 145 to 146 °C.
For `O=c1ccoc2c(C/C=C/c3ccccc3)c(OCc3ccccc3)ccc12`, the melting point fell in the range of 131 to 133 °C.
The molecule `CCC(=O)NC1Cc2cccc3c2N(CCC3)C1=O` (stereo not drawn) had a melting point of 149 to 152 °C.
Then `COC(=O)C(NS(=O)(=O)c1ccc(-c2ccc(NC(=O)c3oc4cccc(C(O)CO)c4c3C)cc2)cc1)C(C)C` (stereo not drawn), with 90 to 95 °C.
With `CCC(CC)c1ccc(Cl)c2nc3n(c12)CCCCN3c1ccc(N(C)C)cc1OC(F)(F)F` the figure was 158 to 159 °C.
With `COc1ccc(S(=O)(=O)Nc2ccccc2O)cc1` the figure was 89 °C; with `CONC(=O)c1[nH]c(C)c(-c2nc3ccc(C(=O)c4ccccc4)cc3[nH]2)c1C`, 203 to 205 °C; with `OC(c1ccc2c(c1)OCCN2)(C(F)(F)F)C(F)(F)F`, 119 to 120 °C.
With `CCOc1cc(OCC(=O)N2CCN(C(=O)OC(C)(C)C)CC2)cc2c1C(=O)N(COC(=O)c1c(Cl)cccc1Cl)S2(=O)=O`, the melting point lay within 193 to 195 °C.
`OCc1cc2ccccc2c(-c2ccccc2)c1CO` returned a melting point of 150 °C.
`Nc1cccc2cc(C(=O)N3CCc4ccccc4C3)cnc12` yielded a melting point of 238 to 240 °C.
`Cc1c(Cl)cccc1NC(=O)C(C)(C)C`: the melting point fell in the range of 113 to 114 °C.
The molecule `COc1cc(C(=O)NN2CCN(C)CC2)ccc1Nc1ncc2c(n1)N(C1CCCC1)CC(F)(F)C(=O)N2C` displayed a melting point of 168 to 174 °C.
`CN(C=O)c1ccc2[nH]cc(CC#N)c2c1` gave a melting point of 118 to 120 °C.
Consider `CCN(CC)C(=O)n1cnc(S(=O)(=O)CC2CCC2)n1`, for which the melting point is 113 to 116 °C.
With `CCOC(=O)c1c[nH]c2nc(SCC)c(F)cc2c1=O`, the melting point was 280 to 284 °C.
The molecule `CCOC(=O)CCC(=O)OCC(=O)c1ccc(Cl)cc1` showed a melting point of 50 to 51 °C.
In turn, `c1ccc(NCC2Oc3ccccc3O2)cc1` showed a melting point of 70 to 72 °C.
On to `CC(=O)Nc1cc2c(cc1[N+](=O)[O-])N(C(C)=O)CCO2`, for which the melting point fell in the range of 199 to 202 °C.
Molecule `O=C(N[C@H](Cc1ccc(C(F)(F)F)cc1)[C@H](O)c1ccc(F)cc1)c1cccc2ccccc12` (racemic) had a melting point of 134 to 135 °C.
In turn, `Cc1cccc(N=C2NCCN2C(=O)Nc2ccc(F)cc2)c1` had a melting point of 178 °C.
In turn, `N#CC(=NO)c1c(F)cccc1Cl` returned a melting point of 119 to 120 °C.
Then `COc1cc(NC2CCN(Cc3ccccc3)CC2)ccc1C(N)=O`, with 155 to 157 °C; and `Cc1nc(CC2OC(CO)C(O)C2O)n2nc(N(C)C)ccc12` (stereo not drawn), with 231 to 232 °C; and `Cc1nc2cc(-c3ccc(C=C4SC(=O)NC4=O)cn3)cc(C3CCCCC3)c2o1`, with 314 to 316 °C.
With `CCN(CC(=O)O)Cc1cc(/C(=N\O)c2cccc(Br)c2)ccc1[N+](=O)[O-]`, the melting point turned out to be 131 °C.
Turning to `CCOP(=O)(/C=C/c1cn(-c2ccccc2)nc1OCc1ccc(OCc2nc(-c3ccccc3)sc2C)c(OC)c1)OCC`, the melting point is 110 to 111 °C.
With `COc1ccc(CCl)c(C)c1OC` the figure was 67 to 68.5 °C; with `COC(=O)C(CC(=O)c1ccc(Oc2ccccc2)cc1)SC(C)=O` (stereo not drawn), 59 to 61 °C; with `CCCCCCCCOc1ccc(-c2ccc(OC(F)F)cc2)cc1`, 104 °C.
With `COc1cc(C(=O)O)ccc1Oc1ccccc1N` the figure was 192 to 194 °C; with `CC(C)CC(C#N)(C#N)Cc1ccc(Cl)cc1`, 73.2 °C; with `CC(=Cc1ccccc1Cl)C(O)(Cn1cncn1)c1ccc(Cl)cc1` (stereo not drawn), 141 to 143 °C.
With `COCOCc1c([N+](=O)[O-])cc(OC)c(OC)c1OC` the figure was 39 to 40 °C; with `COc1ccc2c(c1)CCC1C2CCC2(C)C1CCC2N(C=O)CCOCCO` (stereo not drawn), 134 to 135 °C.
`COC(=O)C1CCc2cc(C(=O)c3ccccc3)c(OC)cc21` (stereo not drawn) yielded a melting point of 126 to 128 °C.
With `CC1NC(=O)NN=C1c1ccc(NCCCN)cc1` (stereo not drawn) the figure was 178 to 179 °C; with `COc1cc(-c2nc(NC(=O)c3cc4cc(C)cc(C)c4n3CC(=O)O)sc2CCC2CCCCC2)c(OC)cc1Cl`, 241 °C; with `OCCn1c(NC2CCNCC2)nc2cccnc21`, 157 °C.
With `CN(C)c1ccc(C(O)C#Cc2ccc(C(=O)O)cc2)cc1C(C)(C)C` (stereo not drawn), the melting point is 139 °C.
Molecule `O=S(=O)(c1ccc(O)cc1)c1c(-c2ccccc2)oc2ccccc12` displayed a melting point of 166 to 168 °C.
Turning to `CC(C)(C)c1ccc(C=NOCCOc2ccc(C(=O)O)c(OCc3ccc(C(F)(F)F)cc3)c2)cc1`, the melting point was 164 to 165 °C.
As to `CSC(=NC(C)=O)N(C)N=Cc1ccccc1`, the melting point was in the range of 102 to 104 °C.
`CC(=O)N1CC(CCN(C)C)Cc2ccc(OCc3ccc(-c4ccccc4)cc3)cc21` (stereo not drawn) displayed a melting point of 62 to 63.5 °C.
In turn, `Cc1nn(CCBr)c(=O)c2ccccc12` registered a melting point of 102 to 103 °C.
`Fc1cc(F)cc(Cn2cnnc2S)c1`: the melting point is 129 to 130 °C.
Take `Cc1ccc(S(=O)(=O)N2CCc3ccccc3C(Oc3cccc(C(F)(F)F)c3)C2)cc1` (stereo not drawn): the melting point was in the range of 112 to 114 °C.
Then `Cc1ccc2c(Cl)c(Cl)ccc2n1`, with 84 to 85 °C.
The molecule `COc1cc(C(C)(C)O)c(OCc2ccccc2)cc1N1CCN(Cc2ccccc2)CC1` came in with a melting point of 94 to 96 °C.
As to `CCN(CC)CCC(=O)Nc1ccc(NC(=O)Nc2ccc(N(CCCl)CCCl)cc2)cc1`, the melting point was in the range of 178 to 179 °C.
For `CC(=O)Nc1ccc(S(=O)(=O)NC(C)(C)C)cc1`, the melting point fell in the range of 200 to 201 °C.
With `CC(=O)c1sccc1CN1C(=O)C(NC(=O)Nc2cccc(C)c2)N=C(C2CCCCC2)c2ccccc21` (racemic) the figure was 231 to 232 °C; with `CCOC(=O)c1c(C(=O)O)ccc(OC)c1OC`, 148 to 149 °C.
`S=C(Nc1ccc(Cl)c(Cl)c1)NC1CCCCC1`: the melting point lay in the range of 159 to 162 °C.
Then `CC(=O)Nc1ccc(S(=O)(=O)CCN2CCOCC2)cc1`, with 136 to 137 °C; and `O=C(C=Cc1cccs1)Nc1nnn[nH]1`, with 287 °C; and `O=C(O)CCCNS(=O)(=O)c1ccc(NC(=O)Nc2ccc(C(F)(F)F)cc2)cc1`, with 172 to 175 °C.
`CCOC(=O)C1=C(c2ccc(OC)cc2)Nc2n[nH]cc2C1c1ccccc1Cl` (stereo not drawn) yielded a melting point of 211 °C.
Turning to `N=C(Nc1ccccc1-c1ccc(F)cc1)N1CCC(O)CC1`, the melting point is 132 to 133 °C.
On to `CC1(C)CCc2c(N3CCOCC3)nc3sc4c(NCc5cccc6ccccc56)ncnc4c3c2C1`, for which the melting point lay in the range of 266 to 267 °C.
Take `O=C(O)c1cn(-c2ccc(F)cc2)c2c(F)c(N3Cc4cccc(F)c4C3)c(F)cc2c1=O`: the melting point is above 300 °C.
Consider `COc1nc(C)c(N2CCCn3c2nc2c(Br)ccc(C(OC(F)F)C(F)(F)F)c23)c(C)n1` (stereo not drawn), for which the melting point was 211 to 213 °C.
`COC(=O)CCc1cc2cc(C(F)(F)F)ccc2n1S(=O)(=O)c1ccc2nc(N)sc2c1` yielded a melting point of 135 to 136 °C.
Consider `CCOc1c([C@@H]2C[C@@H]2/C=C/C(C)=C/C(=O)O)cc(C(C)(C)C)cc1C(C)(C)C` (racemic), for which the melting point lay within 169 to 174 °C.
Take `O=C1c2c(O)ccc(O)c2C(=O)c2c(F)ccc(F)c21`: the melting point is 301 to 304 °C.
On to `CC(=O)Nc1cccc2c1C(=O)c1c-2n[nH]c1-c1ccc(N2CCCCC2)cc1`, for which the melting point came out at 291 °C.
`CC1=C(C#N)C(c2cccc([N+](=O)[O-])c2)C2=C(CCCC2=O)N1` (stereo not drawn) came in with a melting point of 214 to 216 °C.
`O=C(O)Cc1cccc2c(-c3ccc(Cl)cc3)onc12` had a melting point of 200 to 202 °C.
With `CC(=O)OCC1OC(n2c(Br)c(C=O)c3cc(Cl)c(Cl)cc32)C(O)C1O` (stereo not drawn), the melting point fell in the range of 159 to 160 °C.
In turn, `N[C@@H](Cc1ccc(F)cc1)[C@H](O)c1ccc(C(F)(F)F)cc1` (racemic) returned a melting point of 130 to 131 °C.
Consider `N#CCc1ccc(CNC(=O)C2Cc3ccccc3N2S(=O)(=O)c2ccc(-c3cccc(C(F)(F)F)c3)cc2)cc1` (stereo not drawn), for which the melting point was in the range of 75 to 80 °C.
For `CCOc1nc(NCc2ccco2)nc(Nc2ccc3[nH]cnc3c2)n1`, the melting point was 110 to 112 °C.
With `CSc1ccc(-c2nc(O)c(C(=O)Nc3ccc(C)cc3)c(SC)n2)cc1` the figure was 302 to 305 °C.
